{"source": "patent US20240374635A1", "about": "“COMPOSITIONS AND METHODS” (Glasport Bio Limited, priority 2021, published 2024)", "key": {"adult ewes": {"test_system": "adult ewes", "method": "A methane emission study was carried out to determine the impact of feeding different doses of the feed additive would have on enteric fermentation. […] Any refused concentrate/additive was recorded. Sheep then had ad libitum access to grass silage and water throughout the day, with the amount of silage eaten recorded for each animal.\nBody weights of all animals were recorded at the start of the experiment (‘week 1’) and after 49 days (‘week 7’).\nMethane emissions were recorded through use of Portable Accumulation Chambers (PAC). Briefly: these are sealed chambers in which individual animals remain for a 1 hour time period. During this time period methane, oxygen and carbon dioxide measurements are taken at 0 minutes, 25 minutes and 50 minutes. […] Animals were placed in the PAC on week 1 and […] as defined above. 12 adult ewes, at least 2 years old, were divided into 2 groupings of 6 sheep. One group received a 2.355 g dose of Urea-Hydrogen Peroxide (termed Group 1) per day and the other received a 4.71 g dose of Urea-Hydrogen Peroxide (termed Group 2) per day.\nControl Group: Sheep were fed 0.5 kg of feed concentrate comprising animal feed, on a daily basis over a 7 week period.\nTreatment Group 1 (UHP 0.5X): Sheep were fed 0.5 kg of feed concentrate comprising the same animal feed as the control group and 0.15% (by weight) of urea hydrogen peroxide, on a daily basis over a 7 week period.\nTreatment Group 2 (UHP 1X): Sheep were fed 0.5 kg of feed concentrate comprising the same animal feed as the control group and 0.3% (by weight) of urea hydrogen peroxide, on a daily basis over a 7 week period."}, "[1]": {"settings": "for Average Weight Gain: day 1 to day 49; for Average Daily DMI: group average; for Gain:Feed Ratio: group basis; for Average Finishing Weight / Average Starting Weight: group of 20 sheep", "method": "Experimental: A study was conducted to determine what impact consumption of the feed additives would have on animal performance. It is estimated that between 2-12% of the energy content of animal feed is lost through enteric fermentation. This study examined whether though potential reductions in enteric fermentation additional energy would be diverted to the animal, with this being seen via an improved feed:gain metric, that is the ability of the animal to improve the rate of increase in its body weight per unit of feed eaten. 60 adult ewes (average starting body weight of approximately 80 kg) were divided into 3 equal groups of 20 sheep per group. Animals were fed as described in the Animal Study—Methane Emissions above. Animals were grouped into a control group (no feed additive given); treatment group 1 (2.355 g Urea-Hydrogen Peroxide given daily); treatment group 2 (4.71 g Urea-Hydrogen Peroxide given daily).\nAnimals were weighed at the start of the experiment (day 1) and at the end of the study (day 49). All feed (DMI) consumed was weighed and recorded throughout the study.\nA feed:gain ratio was calculated as follows: […]\nThe ratio of weight gain to DMI was then calculated to determine the feed efficiency of each animal."}, "cattle": {"test_system": "cattle", "assay": "In vivo rumen ORP in cattle with ORP measurement bolus", "method": "Experimental: An in vivo study was conducted to investigate the effect of feed additives of the invention on rumen ORP in cattle. The study involved administering an ORP measurement bolus to each cow to allow for an ORP reading to be recorded every 10 minutes, dividing the cattle into three groups: a control group (receiving feed without any feed additive of the invention), low dose (receiving 100 g CaO2 per day along with feed—with the additive being delivered at a single morning feeding) and a high dose group (receiving 200 g CaO2 per day along with feed—with the additive being delivered at a single morning feeding). The rumen was opened after approximately 450 hours.\nThe results of this study are given in FIG. 20 which charts the ORP level in the rumen (mV) over time measured at 10-minute intervals for the control group, the low-dose group, and the high-dose group respectively.\nAn average baseline ORP reading measured for the animals from the control group is about −440 mV. This average baseline ORP reading of about −440 mV may be useful to aid comparison between control ORP and increases in ORP due to the animals consuming the additive. After approximately 450 hours the rumen was opened and the ORP results after this time point should be disregarded."}, "[2]": {"settings": "Treatment Group 1, 2.355 g UHP per day"}, "[3]": {"settings": "Treatment Group 1, 2.355 g UHP per day, Week 1"}, "[4]": {"settings": "Treatment Group 1, 2.355 g UHP per day, Week 7"}, "[5]": {"settings": "Treatment Group 2, 4.71 g UHP per day"}, "[6]": {"settings": "Treatment Group 2, 4.71 g UHP per day, Week 1"}, "[7]": {"settings": "Treatment Group 2, 4.71 g UHP per day, Week 7"}}, "note": "Like-named read-outs stand apart in the source and are kept apart here."}
{"smiles": "NC(N)=O.OO", "note": "[urea hydrogen peroxide]", "values": [{"measurement": "CH4/BW Difference week 7 versus week 1", "setting": "adult ewes; [2]", "value": 11.24, "unit": "%"}, {"measurement": "CH4/day Difference week 7 versus week 1", "setting": "adult ewes; [2]", "value": 5.828, "unit": "%"}, {"measurement": "CH4/BW (group mean)", "setting": "adult ewes; [3]", "value": "0.3705 litres of methane per kg of animal body weight"}, {"measurement": "CH4/day (group mean)", "setting": "adult ewes; [3]", "value": 29.32}, {"measurement": "CH4/BW (group mean)", "setting": "adult ewes; [4]", "value": "0.3288 litres of methane per kg of animal body weight"}, {"measurement": "CH4/day (group mean)", "setting": "adult ewes; [4]", "value": 27.61}, {"measurement": "CH4/BW Difference week 7 versus week 1", "setting": "adult ewes; [5]", "value": 22.61, "unit": "%"}, {"measurement": "CH4/day Difference week 7 versus week 1", "setting": "adult ewes; [5]", "value": 18.04, "unit": "%"}, {"measurement": "CH4/BW (group mean)", "setting": "adult ewes; [6]", "value": "0.3753 litres of methane per kg of animal body weight"}, {"measurement": "CH4/day (group mean)", "setting": "adult ewes; [6]", "value": 29.82}, {"measurement": "CH4/BW (group mean)", "setting": "adult ewes; [7]", "value": "0.2905 litres of methane per kg of animal body weight"}, {"measurement": "CH4/day (group mean)", "setting": "adult ewes; [7]", "value": 24.44}, {"measurement": "methane production by week 7", "setting": "adult ewes; treatment groups, feed concentrate comprising urea hydrogen peroxide", "value": "significant decrease in methane production"}, {"measurement": "Average Weight Gain", "setting": "[1]; Treatment 1, 2.355 g UHP daily", "value": 5.65, "unit": "kg"}, {"measurement": "Average Daily DMI", "setting": "[1]; Treatment 1, 2.355 g UHP daily", "value": 1.6345, "unit": "kg"}, {"measurement": "Gain:Feed Ratio", "setting": "[1]; Treatment 1, 2.355 g UHP daily", "value": 0.0864}, {"measurement": "Average Finishing Weight", "setting": "[1]; Treatment 1, 2.355 g UHP daily", "value": 82.55, "unit": "kg"}, {"measurement": "Average Starting Weight", "setting": "[1]; Treatment 1, 2.355 g UHP daily", "value": 76.9, "unit": "kg"}, {"measurement": "Average Weight Gain", "setting": "[1]; Treatment 2, 4.71 g UHP daily", "value": 6.325, "unit": "kg"}, {"measurement": "Average Daily DMI", "setting": "[1]; Treatment 2, 4.71 g UHP daily", "value": 1.516, "unit": "kg"}, {"measurement": "Gain:Feed Ratio", "setting": "[1]; Treatment 2, 4.71 g UHP daily", "value": 0.1043}, {"measurement": "Average Finishing Weight", "setting": "[1]; Treatment 2, 4.71 g UHP daily", "value": 81.275, "unit": "kg"}, {"measurement": "Average Starting Weight", "setting": "[1]; Treatment 2, 4.71 g UHP daily", "value": 74.95, "unit": "kg"}, {"measurement": "weight gain versus control group", "setting": "[1]; treatment groups", "value": "gained more weight on average than the control group"}]}
{"smiles": "[Ca+2].[O-][O-]", "note": "[CaO2, calcium peroxide]", "values": [{"measurement": "increase of ORP in the rumen after each morning feed", "setting": "cattle; 100 g or 200 g CaO2 per day with feed, sustained period of at least one hour", "value": "at least +100 mV"}, {"measurement": "initial period (correction phase) of the ORP profile", "setting": "cattle; 100 g or 200 g CaO2 per day, temporary reductions below baseline between administrations", "value": "300 to 350", "unit": "h"}]}
